{
  "source": "patent US20060275504A1",
  "about": "“Methods and compositions for augmenting cancer chemotherapeutic agents” (TTY BIOPHARM COMPANY LIMITED, priority 2005, published 2006)",
  "origin": "cited, not measured here",
  "data": [
    {"compound": "S1[As]2S[As]3S[As]2S[As]13", "note": "[As4S4, tetraarsenic tetraslfide]", "values": [
      {"measurement": "complete remission rates", "setting": "arsenic-containing substances other than arsenic trioxide (Wang Z. Y. 2001)", "result": 84.9, "unit": "%"}
    ]},
    {"compound": "O=C1O[C@H]([C@@H](O)CO)C(O)=C1O", "note": "[Ascorbic acid]", "values": [
      {"measurement": "concentration exhibiting cytotoxic activity", "setting": "MDA-MB-231; MDA-MB-231, ascorbic acid alone", "result": "10^2-10^3 μM"},
      {"measurement": "effect on cytotoxicity of DOX, DDP and TX", "setting": "MDA-MB-231; MDA-MB-231, ascorbic acid at non-cytotoxic (1 μM) and moderately cytotoxic (10^2 μM) concentration", "result": "improved the cytotoxicity of DOX, DDP and TX significantly"},
      {"measurement": "concentration exhibiting cytotoxic activity", "setting": "MCF-7; MCF-7, ascorbic acid alone", "result": "10^2-10^3 μM"},
      {"measurement": "effect on cytotoxicity of DOX, DDP and TX", "setting": "MCF-7; MCF-7, ascorbic acid at non-cytotoxic (1 μM) and moderately cytotoxic (10^2 μM) concentration", "result": "improved the cytotoxicity of DOX, DDP and TX significantly"}
    ]},
    {"compound": "arsenic trioxide", "values": [
      {"measurement": "complete remission (CR) rate", "setting": "intravenously 10 mg/d, patients with relapsed acute promyelocytic leukemia", "result": 90, "unit": "%"}
    ]}
  ]
}
